Laboratory results taken from patent US8008007B2, “S-adenosyl-L-methionine analogs with extended activated groups for transfer by methyltransferases” (RWTH Aachen, priority 2005, dated 2011).

Assays:
[1] = target: T1, M.HhaI-Q82A (Haemophilus parahaemolyticus, UniProt P05102, Q82A); test: Modification of cytosine-C5 in duplex oligodeoxynucleotide III.IV by M.HhaI-Q82A, nucleoside analysis by HPLC/ESI-MS; assay type: biochemical; settings: duplex III.IV 12.5 μM, cofactor 300 μM, enzyme 15 μM, 37° C. over night
T1 construct: made in house
Text: Transfer of the activated ethyl (CH2CH3), propyl (CH2CH2CH3), prop-2-enyl (CH2CHCH2), prop-2-ynyl group (CH2CCH), but-2-ynyl (CH2CCCH3), pent-2-ynyl (CH2CCCH2CH3) or benzyl group (CH2C6H5) from cofactors 3-9 by the DNA adenine-N6 methyltransferase M.TaqI, the DNA cytosine-C5 methyltransferase M.HhaI variant Q82A or the DNA cytosine-N4 methyltransferase M.BcnIB to DNA was first investigated using short duplex oligodeoxynucleotides as substrates. After enzymatic transfer the duplex oligodeoxynucleotides were enzymatically fragmented and the resulting modified nucleosides were analyzed by reversed-phase HPLC coupled with ESI-MS.
Therefore, the codon for Q82 was changed to a codon for alanine by standard Kunkel mutagenesis (Kunkel et al., […] Proc. Natl. Acad. Sci. USA 82, 488-492) and the correct DNA sequence of the complete gene was verified by DNA sequencing. Expression and purification of the Q82A variant was performed as described for the wild-type enzyme (Kumar et al., (1992) Biochemistry 31, 8648-8653; Klimasauskas et al., (1998) EMBO J. 17, 317-324). The presence of the amino acid substitution was verified by mass spectrometric analysis of purified M.HhaI-Q82A.
The duplex oligodeoxynucleotide III.IV was produced by mixing equal molar amounts (2.5 nmol) of complementary single-stranded oligodeoxynucleotide III (5′-[…]-3′) (SEQ ID NO. 3) and IV (5′-[…]-3′) (SEQ ID NO. 4) in water, heating at 85° C. for 5 min and slow cooling to room temperature. […] M.HhaI-Q82A was denatured by heating to 80° C. for 10 min and incubation with Proteinase K at 55° C. for 1 h. Hydrolysis products were removed by gel filtration (G-25 column, Amersham Biosciences).
The obtained solutions of duplex oligodeoxynucleotides were treated with buffer ( 1/10 volume, 100 mM Tris hydrochloride, 100 mM magnesium chloride, 10 mM zinc acetate, pH 7.5) containing Nuclease P1 (1500 u, Sigma) and calf intestine alkaline phosphatase (30 u, MBI Fermentas) and incubated at 37° C. for 4 h. Nucleosides were analyzed by reversed-phase HPLC (Discovery C18 150×2.1 mm, 5 μm, equipped with a Supelguard Discovery C18 20×2.1 mm, 5 μm, pre-column, Supelco, Germany) coupled with a mass spectrometric detector (HP 1100 series ESI-MS equipped with single quadruple). Compounds were eluted with methanol (0% for 6 min, followed by linear gradients to 56% in 15 min and to 80% in 1 min) in ammonium formate buffer (20 mM, pH 4.25 for cofactors 3, 4, 6 and pH 3.5 for cofactors 5, 7, 8) at a flow of 0.3 mL/min and detected at 280 nm. For on-line mass spectrometric detection post-column mobile phase modification (equal co-flow of 96% methanol, 4% formic acid and 1 mM sodium hydroxide) was used to enhance the detection efficiency of 2′-deoxycytidine and its derivatives. Mass spectra were recorded in 50-600 m/z range.

[2] = target: T2, M.TaqI (Thermus aquaticus, UniProt P14385); test: DNA protection assay with M.TaqI (wild-type) on phage lambda DNA; assay type: biochemical; settings: cofactor 300 μM, then R.TaqI
T2 construct: made in house
Text: Transfer kinetics of the activated ethyl (—CH2CH3), propyl (—CH2CH2CH3), prop-2-enyl (—CH2CH═CH2), prop-2-ynyl (—CH2C≡CH), but-2-ynyl (—CH2C≡CCH3), pent-2-ynyl (—CH2C≡CCH2CH3) and benzyl group (—CH2C6H5) from cofactors 3-9 by the DNA adenine-N6 methyltransferase M.TaqI and its variant V21 G, the DNA cytosine-C5 methyltransferase M.HhaI and its variant Q82A, the DNA cytosine-N4 methyltransferase M.BcnIB and the DNA cytosine-C5 methyltransferase M.SssI variant Q142A to phage lambda DNA (48502 base pairs) were investigated using a DNA protection assay. This assay makes use of the fact that DNA methyltransferase-catalyzed modifications of nucleobases within the recognition sequences of restriction endonucleases can protect the DNA against fragmentation by these enzymes. […] Unmodified DNA containing 5′-TCGA-3′ recognition sequences is readily fragmentated by R.TaqI. After DNA modification by M.TaqI in the presence of a cofactor with an activated group Z—R modified 5′-TCGA^Z—R-3′ sequences are formed and, as a result, R.TaqI is unable to fragment the modified DNA. Occurrence of fragmentation is then analyzed by agarose gel electrophoresis.
By varying the amounts of DNA methyltransferase, this assay is used to investigate the enzymatic activities of the different DNA methyltransferases with cofactors 3-9 and compare them to the enzymatic activities with the natural cofactor 1. The minimal amount of DNA methyltransferase needed to fully protect 1 μg of phage lambda DNA against restriction endonuclease fragmentation under the given experimental conditions is defined as one enzyme unit (u).
Afterwards a solution (30 μL) containing R.TaqI restriction endonuclease (40 u, MBI Fermentas), bovine serum albumin (0.166 mg/mL) and buffer (16.6 mM Tris hydrochloride, 166 mM sodium chloride, 8.3 mM magnesium chloride, pH 8.0) was added to each dilution and incubation at 60-65° C. was continued for 15 min. Loading buffer (10 μL, 0.25% bromphenol blue, 30% glycerol) was added to each sample, and aliquots (12 μL) were analyzed for the degree of protection by agarose gel (1%) electrophoresis. Parallel control experiments were performed with phage lambda DNA in the absence of M.TaqI and in the presence of M.TaqI (200 ng).
Afterwards a solution (10 μL) containing R.TaqI restriction endonuclease (10 u, MBI Fermentas), bovine serum albumin (0.1 mg/mL) and buffer (33 mM Tris acetate, 66 mM potassium acetate, 10 mM magnesium acetate, pH 7.9) was added to each dilution and incubation was continued at 65° C. for 1 h. […] Parallel control experiments were performed with phage lambda DNA in the absence of M.TaqI and in the presence of M.TaqI (180 ng).

[3] = 1 μg phage lambda DNA, 60° C. for 4 h, 1 u = minimal enzyme amount fully protecting 1 μg DNA

T1 sequence (P05102 whole entry Q82A): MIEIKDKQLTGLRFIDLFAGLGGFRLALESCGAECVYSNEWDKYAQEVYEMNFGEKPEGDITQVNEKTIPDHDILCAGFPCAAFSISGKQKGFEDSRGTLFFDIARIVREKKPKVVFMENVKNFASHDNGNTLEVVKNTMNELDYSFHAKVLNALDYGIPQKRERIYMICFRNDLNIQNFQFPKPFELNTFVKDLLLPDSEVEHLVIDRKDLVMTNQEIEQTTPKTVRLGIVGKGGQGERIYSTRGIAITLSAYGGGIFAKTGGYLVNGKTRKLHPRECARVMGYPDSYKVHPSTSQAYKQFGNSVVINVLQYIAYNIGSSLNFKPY
T2 sequence (P14385 whole entry): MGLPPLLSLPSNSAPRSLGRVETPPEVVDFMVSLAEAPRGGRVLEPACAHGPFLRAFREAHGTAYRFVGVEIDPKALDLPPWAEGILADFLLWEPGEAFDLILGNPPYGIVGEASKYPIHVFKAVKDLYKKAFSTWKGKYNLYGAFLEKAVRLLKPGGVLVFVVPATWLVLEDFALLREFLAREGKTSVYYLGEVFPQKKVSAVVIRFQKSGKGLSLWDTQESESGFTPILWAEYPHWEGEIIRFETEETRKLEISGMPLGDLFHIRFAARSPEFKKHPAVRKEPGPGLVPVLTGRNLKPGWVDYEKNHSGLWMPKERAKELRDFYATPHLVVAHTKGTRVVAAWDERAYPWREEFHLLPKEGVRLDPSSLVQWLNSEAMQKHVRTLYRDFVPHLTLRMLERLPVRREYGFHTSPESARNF

SMILES	cofactor function for M.HhaI-Q82A (transfer of group Z-R to cytosine-C5) [1]	specific activity of M.TaqI with the cofactor [2, 3]	specific activity of M.TaqI with the cofactor ([2]; 1.03 μg phage lambda DNA, 60° C. for 1 h only (multiply by four to compare with 4 h values))
CC#CC[S+](CCC(N)C(=O)O)CC1OC(n2cnc3c(N)ncnc32)C(O)C1O (mixture of isomers) [Cofactor 7]	functions as a cofactor	1280 u/μg	
CC[S+](CCC(N)C(=O)O)CC1OC(n2cnc3c(N)ncnc32)C(O)C1O (stereo not shown) [Cofactor 3]	functions as a cofactor	10 u/μg	
CCC[S+](CCC(N)C(=O)O)CC1OC(n2cnc3c(N)ncnc32)C(O)C1O (stereo not shown) [Cofactor 4]	does not function as a cofactor	< 5 u/μg	
C=CC[S+](CCC(N)C(=O)O)CC1OC(n2cnc3c(N)ncnc32)C(O)C1O (stereo not shown) [Cofactor 5]	functions as a cofactor	80 u/μg	
C#CC[S+](CCC(N)C(=O)O)CC1OC(n2cnc3c(N)ncnc32)C(O)C1O (stereo not shown) [Cofactor 6]	functions as a cofactor	10 u/μg	
CCC#CC[S+](CCC(N)C(=O)O)CC1OC(n2cnc3c(N)ncnc32)C(O)C1O (stereo not shown) [Cofactor 8]	functions as a cofactor	640 u/μg	
NCCCC(=O)NCC#CC[S+](CCC(N)C(=O)O)CC1OC(n2cnc3c(N)ncnc32)C(O)C1O (stereo not shown) [Cofactor 10]			11 u/μg
